Experimental data taken from article PMC10778198, “First-in-Human Dose-Escalation Study of the Novel Oral Depsipeptide Class I-Targeting HDAC Inhibitor Bocodepsin (OKI-179) in Patients with Advanced Solid Tumors” (Cancers, 2023).

Test system: patients with advanced solid tumors
Test: phase I dose escalation: safety, DLT, MTD, RP2D (CTCAE v. 5)
Type: in vivo
Details: 4:3
Text: Subsequent dosing cohorts were enrolled using a standard 3 + 3 design.
If any patient in any cohort of three patients developed a DLT during cycle 1, an additional three patients were recruited to expand the cohort to up to six evaluable patients. If two or more patients in any expanded cohort developed a DLT, this dose was considered non-tolerated, and dose escalation was discontinued. The MTD was defined as the highest dose level for which no more than one of six patients experienced a DLT.
Patients were continuously evaluated for adverse events throughout the study using the Common Terminology Criteria of Adverse Events (CTCAE v. 5). The patients underwent a clinical history and physical examination, an ECOG PS, a complete blood count (CBCs), chemistry, coagulation studies, urinalysis, a serum pregnancy test (as applicable), a triplicate ECG, an ophthalmology examination, and baseline tumor assessment at screening. During cycle 1, weekly history and physical examination, CBC, chemistry, coagulation parameters, urinalysis, and triplicate ECGs were performed; in subsequent cycles, weekly labs were limited to a CBC. Repeat ophthalmology examinations were performed at cycle 3, day 1, and at the end of treatment. Repeat tumor assessment was performed every 2 cycles (6 weeks) in accordance with RECIST 1.1.

CC(C)[C@H](N)C(=O)SCC/C=C/[C@@H]1CC(=O)NCc2nc(cs2)C(=O)NC(C)(C)C(=O)N[C@@H](C(C)C)C(=O)O1 [OKI-179, Bocodepsin]
TEAE: Anemia (30 mg–210 mg (n = 8), G1): 0 n (%)
TEAE: Back pain (30 mg–210 mg (n = 8), G1): 1 (13) n (%)
TEAE: Cough (30 mg–210 mg (n = 8), G1): 2 (25) n (%)
TEAE: Decreased appetite (30 mg–210 mg (n = 8), G1): 3 (38) n (%)
TEAE: Diarrhea (30 mg–210 mg (n = 8), G1): 5 (63) n (%)
TEAE: Dyspnea (30 mg–210 mg (n = 8), G1): 2 (25) n (%)
TEAE: ECG QT prolonged (30 mg–210 mg (n = 8), G1): 0 n (%)
TEAE: Fatigue (30 mg–210 mg (n = 8), G1): 2 (25) n (%)
TEAE: Headache (30 mg–210 mg (n = 8), G1): 2 (25) n (%)
TEAE: Hypokalaemia (30 mg–210 mg (n = 8), G1): 1 (13) n (%)
TEAE: Muscular weakness (30 mg–210 mg (n = 8), G1): 0 n (%)
TEAE: Nasal congestion (30 mg–210 mg (n = 8), G1): 1 (13) n (%)
TEAE: Nausea (30 mg–210 mg (n = 8), G1): 5 (63) n (%)
TEAE: Platelet count decreased (30 mg–210 mg (n = 8), G1): 0 n (%)
TEAE: Proteinuria (30 mg–210 mg (n = 8), G1): 0 n (%)
TEAE: Pyrexia (30 mg–210 mg (n = 8), G1): 2 (25) n (%)
TEAE: Vomiting (30 mg–210 mg (n = 8), G1): 4 (50) n (%)
TEAE: Weight decreased (30 mg–210 mg (n = 8), G1): 1 (13) n (%)
TEAE: Anemia (30 mg–210 mg (n = 8), G2): 2 (25) n (%)
TEAE: Back pain (30 mg–210 mg (n = 8), G2): 0 n (%)
TEAE: Cough (30 mg–210 mg (n = 8), G2): 1 (13) n (%)
TEAE: Decreased appetite (30 mg–210 mg (n = 8), G2): 1 (13) n (%)
TEAE: Diarrhea (30 mg–210 mg (n = 8), G2): 0 n (%)
TEAE: Dyspnea (30 mg–210 mg (n = 8), G2): 0 n (%)
TEAE: ECG QT prolonged (30 mg–210 mg (n = 8), G2): 0 n (%)
TEAE: Fatigue (30 mg–210 mg (n = 8), G2): 1 (13) n (%)
TEAE: Headache (30 mg–210 mg (n = 8), G2): 0 n (%)
TEAE: Hypokalaemia (30 mg–210 mg (n = 8), G2): 0 n (%)
TEAE: Muscular weakness (30 mg–210 mg (n = 8), G2): 1 (13) n (%)
TEAE: Nausea (30 mg–210 mg (n = 8), G2): 0 n (%)
TEAE: Platelet count decreased (30 mg–210 mg (n = 8), G2): 0 n (%)
TEAE: Proteinuria (30 mg–210 mg (n = 8), G2): 0 n (%)
TEAE: Pyrexia (30 mg–210 mg (n = 8), G2): 0 n (%)
TEAE: Vomiting (30 mg–210 mg (n = 8), G2): 0 n (%)
TEAE: Weight decreased (30 mg–210 mg (n = 8), G2): 1 (13) n (%)
TEAE: Anemia (30 mg–210 mg (n = 8), G3): 2 (25) n (%)
TEAE: Back pain (30 mg–210 mg (n = 8), G3): 0 n (%)
TEAE: Cough (30 mg–210 mg (n = 8), G3): 0 n (%)
TEAE: Decreased appetite (30 mg–210 mg (n = 8), G3): 0 n (%)
TEAE: Diarrhea (30 mg–210 mg (n = 8), G3): 0 n (%)
TEAE: Dyspnea (30 mg–210 mg (n = 8), G3): 0 n (%)
TEAE: ECG QT prolonged (30 mg–210 mg (n = 8), G3): 1 (13) n (%)
TEAE: Fatigue (30 mg–210 mg (n = 8), G3): 1 (13) n (%)
TEAE: Headache (30 mg–210 mg (n = 8), G3): 0 n (%)
TEAE: Hypokalaemia (30 mg–210 mg (n = 8), G3): 0 n (%)
TEAE: Muscular weakness (30 mg–210 mg (n = 8), G3): 0 n (%)
TEAE: Nausea (30 mg–210 mg (n = 8), G3): 0 n (%)
TEAE: Platelet count decreased (30 mg–210 mg (n = 8), G3): 0 n (%)
TEAE: Proteinuria (30 mg–210 mg (n = 8), G3): 0 n (%)
TEAE: Pyrexia (30 mg–210 mg (n = 8), G3): 0 n (%)
TEAE: Vomiting (30 mg–210 mg (n = 8), G3): 0 n (%)
TEAE: Weight decreased (30 mg–210 mg (n = 8), G3): 0 n (%)
TEAE: Anemia (270 mg (n = 3), G1): 0 n (%)
TEAE: Back pain (270 mg (n = 3), G1): 0 n (%)
TEAE: Cough (270 mg (n = 3), G1): 0 n (%)
TEAE: Decreased appetite (270 mg (n = 3), G1): 0 n (%)
TEAE: Diarrhea (270 mg (n = 3), G1): 0 n (%)
TEAE: Dyspnea (270 mg (n = 3), G1): 0 n (%)
TEAE: ECG QT prolonged (270 mg (n = 3), G1): 0 n (%)
TEAE: Fatigue (270 mg (n = 3), G1): 1 (33) n (%)
TEAE: Headache (270 mg (n = 3), G1): 0 n (%)
TEAE: Hypokalaemia (270 mg (n = 3), G1): 0 n (%)
TEAE: Muscular weakness (270 mg (n = 3), G1): 1 (33) n (%)
TEAE: Nausea (270 mg (n = 3), G1): 1 (33) n (%)
TEAE: Platelet count decreased (270 mg (n = 3), G1): 1 (33) n (%)
TEAE: Proteinuria (270 mg (n = 3), G1): 0 n (%)
TEAE: Pyrexia (270 mg (n = 3), G1): 0 n (%)
TEAE: Vomiting (270 mg (n = 3), G1): 0 n (%)
TEAE: Weight decreased (270 mg (n = 3), G1): 0 n (%)
TEAE: Anemia (270 mg (n = 3), G2): 0 n (%)
TEAE: Back pain (270 mg (n = 3), G2): 0 n (%)
TEAE: Cough (270 mg (n = 3), G2): 0 n (%)
TEAE: Decreased appetite (270 mg (n = 3), G2): 0 n (%)
TEAE: Diarrhea (270 mg (n = 3), G2): 0 n (%)
